Data reported in patent publication US8455196B2, “Biomarker for identifying subgroup of early-stage lung adenocarcinoma patients” (priority 2011, dated 2013).

Tests used:
[1] = tested on: PTEN; assay: Immunoblot of PTEN in TOPK-transfected CL1-0 cells treated with inhibitor; format: cell-based, human; conditions: LY294002 10 μM
Method: CL1-0 (C, left), H1299 (C, right), and IMR90 (D) cells were transiently transfected with a vector control or pCMV2-Flag-TOPK (WT) or pCMV2-Flag-TOPK (KD) plasmid; twenty-two hours after transfection, a fraction of the cells was harvested for immunoblotting as indicated in (B); the migration and cell viability of TOPK-overexpressing IMR90 cells was also evaluated as described previously (D, right panel) (*P<0.05, **P<0.01, ***P<0.001);
To determine whether TOPK mediated AKT-dependent cell mortility by regulating the PTEN protein level, we first examined whether co-treating cells with LY294002, a PI3K inhibitor, could affect the TOPK-induced decrease in PTEN. […] Moreover, when PTEN was ectopically expressed, TOPK-induced phosphorylation of AKT-Ser^473 was blocked in a dose-dependent manner (FIG. 5A).

[2] = tested on: CL1-0 cells; assay: Transwell migration of TOPK-overexpressing CL1-0 cells with pharmacological inhibitors; format: cell-based, human; conditions: CL1-0 cells transfected with pCMV2-Flag-TOPK; inhibitor 10 μM, 2 hrs
Method: All cell culture related reagents were purchased from Invitrogen. […] All cells were cultured in appropriate medium, e.g., RPMI 1640 for A549, CL1-0 and CL1-5; DMEM for IMR90, H1299 and H23. Each medium were supplemented with 10% fetal bovine serum, 2 mM of L-glutamine and 1% penicillin/streptomycin. Transfection of cells was done using lipofetamine (Invitrogen) according to the manufacturer's instructions. […] At 24 or 48 hr post-transfection, cells were harvested and subjected to a migration or proliferation assay and the protein level of TOPK was determined by western blotting as described previously (Chen et al 2009a). Pharmacological inhibitors used (LY294002, U0126, and SB203580) were from Cell Signaling.

[3] = tested on: CL152 cells; assay: MTT cell viability after cisplatin in siRNA-transfected CL152 cells; format: cell-based; conditions: cisplatin 35 μM, 48 hr
Method: After 48 hr, MTT assays were performed to examine the cell viability (n=3, ** P<0.01).
(§1) Different lung cancer cell lines have been previously analyzed for the expression level of TOPK (data not shown). […] Recently, we have tested the knockdown effect of TOPK in promoting cisplatin-induced cytotoxicity in other lung cancer cells, such as CL152 and CL141 cells.

[4] = tested on: phospho-H2AX (γ-H2AX); assay: Immunoblot of cisplatin-induced H2AX phosphorylation; format: cell-based, human; conditions: cisplatin 35 μM; for cisplatin-induced γ-H2AX after TOPK shRNA: A549-Luc cells stably transfected with shRNA
From the text: Cells were harvested for detecting the expression of phospho-H2AX (γ-H2AX), H2AX and TOPK by immunoblotting.
Platinum-based combination chemotherapy (i.e. cisplatin) is recognized as the first-line standard of care in NSCLC. […]

[5] = human, in vivo; cited from earlier work
[6] = tested on: pAKT; assay: Immunoblot of EGF-induced AKT phosphorylation in A549-Luc cells; format: cell-based, human; conditions: A549-Luc stably transfected with shRNA; serum deprived 24 hrs; EGF 20 ng/ml, 0-30 min
Method: FIG. 15 provides the results of knockdown of TOPK decreasing EGF-induced AKT phosphorylation in A549-Luc cells. shNC, shTOPK-3 (SEQ ID NO: 3), and shTOPK-4 (SEQ ID NO: 4) stably transfected A549-Luc cells were serum deprived for 24 hrs. EGF (20 ng/ml) was added to stimulate cells for 0˜30 min as indicated. Then, cells were harvested for detecting the expression of pAKT, AKT and TOPK by immunoblotting.
as §1

Compound | increase in cell migration stimulated by ectopic expression of TOPK [2] | cisplatin-induced γ-H2AX after TOPK shRNA [4] | EGF-induced AKT phosphorylation [6] | also measured
O=c1cc(N2CCOCC2)oc2c(-c3ccccc3)cccc12 [LY294002] | – | – | – | TOPK-induced reduction of PTEN [1]: no effect
C[S+]([O-])c1ccc(-c2nc(-c3ccncc3)c(-c3ccc(F)cc3)[nH]2)cc1 (stereo not shown) [SB203580] | inhibited to a smaller extent | – | – | –
N#CC(=C(/N)Sc1ccccc1N)/C(C#N)=C(\N)Sc1ccccc1N [U0126] | inhibited to a smaller extent | – | – | –
N.N.[Cl][Pt][Cl] [cisplatin] | – | – | – | cell death induced by cisplatin [3]: ~90%; time of peak of cisplatin-induced γ-H2AX ([4]; A549 control cells): 12 h; concentration found in the serum of cisplatin-treated patients [5]: 35 µM
shTOPK-3: shRNA having a sequence as set forth in SEQ ID NO:3 (TGACCCTGAGGCTTGTTACAT; shRNA, further chemistry not given here) | – | significantly decreasing | decreasing | –
shTOPK-4: shRNA having a sequence as set forth in SEQ ID NO:4 (TGTGGGAAATGATGACTTTAT; shRNA, further chemistry not given here) | – | significantly decreasing | decreasing | –
